Experimental data reported in ChEMBL document CHEMBL5584358, “Fungal Coculture of Herpotrichia sp. and Trametes versicolor Induces Production of Diverse Metabolites with Anti-Parkinson's Neuroprotective Activity” (J Nat Prod, 2024).

Legend:
PC-12 [1] = assay: Cytotoxicity against rat PC12 cells assessed as effect on cell viability at 20 uM measured after 24 hrs by CCK-8 assay; assay type: toxicity, cell-based; conditions: pc-12, 24 h
PC-12 [2] = assay: Neuroprotective activity against MPP+-induced rat PC12 cell death assessed as upregulation of Bach2 gene expression at 1 to 10 uM preincubated for 1 hr followed by MPP+ addition and measured after 24 hrs by RNA sequencing analysis relative to control; assay type: functional; conditions: dose 1-10 µM; time 25 hrs
PC-12 [3] = assay: Neuroprotective activity against MPP+-induced rat PC12 cell death assessed as upregulation of Rab5al1 gene expression at 1 to 10 uM preincubated for 1 hr followed by MPP+ addition and measured after 24 hrs by RNA sequencing analysis relative to control; assay type: functional; conditions: dose 1-10 µM; time 25 hrs
PC-12 [4] = assay: Neuroprotective activity against MPP+-induced rat PC12 cell death assessed as upregulation of Lck gene expression at 1 to 10 uM preincubated for 1 hr followed by MPP+ addition and measured after 24 hrs by RNA sequencing analysis relative to control; assay type: functional; conditions: dose 1-10 µM; time 25 hrs
PC-12 [5] = assay: Neuroprotective activity against MPP+-induced rat PC12 cell death assessed as upregulation of Cdh1 gene expression at 1 to 10 uM preincubated for 1 hr followed by MPP+ addition and measured after 24 hrs by RNA sequencing analysis relative to control; assay type: functional; conditions: dose 1-10 µM; time 25 hrs
PC-12 [6] = assay: Neuroprotective activity against MPP+-induced rat PC12 cell death assessed as upregulation of Des gene expression at 1 to 10 uM preincubated for 1 hr followed by MPP+ addition and measured after 24 hrs by RNA sequencing analysis relative to control; assay type: functional; conditions: dose 1-10 µM; time 25 hrs
PC-12 [7] = assay: Neuroprotective activity against MPP+-induced rat PC12 cell death assessed as upregulation of Tars2 gene expression at 1 to 10 uM preincubated for 1 hr followed by MPP+ addition and measured after 24 hrs by RNA sequencing analysis relative to control; assay type: functional; conditions: dose 1-10 µM; time 25 hrs
PC-12 [8] = assay: Neuroprotective activity against MPP+-induced rat PC12 cell death assessed as upregulation of Mtr gene expression at 1 to 10 uM preincubated for 1 hr followed by MPP+ addition and measured after 24 hrs by RNA sequencing analysis relative to control; assay type: functional; conditions: dose 1-10 µM; time 25 hrs
PC-12 [9] = assay: Neuroprotective activity against MPP+-induced rat PC12 cell death assessed as upregulation of Nat1 gene expression at 1 to 10 uM preincubated for 1 hr followed by MPP+ addition and measured after 24 hrs by RNA sequencing analysis relative to control; assay type: functional; conditions: dose 1-10 µM; time 25 hrs
PC-12 [10] = assay: Neuroprotective activity against MPP+-induced rat PC12 cell death assessed as upregulation of Ets1 gene expression at 1 to 10 uM preincubated for 1 hr followed by MPP+ addition and measured after 24 hrs by RNA sequencing analysis relative to control; assay type: functional; conditions: dose 1-10 µM; time 25 hrs
PC-12 [11] = assay: Neuroprotective activity against MPP+-induced rat PC12 cell death assessed as upregulation of Plau gene expression at 1 to 10 uM preincubated for 1 hr followed by MPP+ addition and measured after 24 hrs by RNA sequencing analysis relative to control; assay type: functional; conditions: dose 1-10 µM; time 25 hrs
PC-12 [12] = assay: Neuroprotective activity against MPP+-induced rat PC12 cell death assessed as upregulation of Dars2 gene expression at 1 to 10 uM preincubated for 1 hr followed by MPP+ addition and measured after 24 hrs by RNA sequencing analysis relative to control; assay type: functional; conditions: dose 1-10 µM; time 25 hrs
PC-12 [13] = assay: Neuroprotective activity against MPP+-induced rat PC12 cell death assessed as upregulation of Faslg gene expression at 1 to 10 uM preincubated for 1 hr followed by MPP+ addition and measured after 24 hrs by RNA sequencing analysis relative to control; assay type: functional; conditions: dose 1-10 µM; time 25 hrs
PC-12 [14] = assay: Neuroprotective activity against MPP+-induced rat PC12 cell death assessed as upregulation of Mmp2 gene expression at 1 to 10 uM preincubated for 1 hr followed by MPP+ addition and measured after 24 hrs by RNA sequencing analysis relative to control; assay type: functional; conditions: dose 1-10 µM; time 25 hrs
PC-12 [15] = assay: Neuroprotective activity against MPP+-induced rat PC12 cell death assessed as downregulation of F8 gene expression at 1 to 10 uM preincubated for 1 hr followed by MPP+ addition and measured after 24 hrs by RNA sequencing analysis relative to control; assay type: functional; conditions: dose 1-10 µM; time 25 hrs
PC-12 [16] = assay: Neuroprotective activity against MPP+-induced rat PC12 cell death assessed as downregulation of Nlrp1a gene expression at 1 to 10 uM preincubated for 1 hr followed by MPP+ addition and measured after 24 hrs by RNA sequencing analysis relative to control; assay type: functional; conditions: dose 1-10 µM; time 25 hrs
PC-12 [17] = assay: Neuroprotective activity against MPP+-induced rat PC12 cell death assessed as downregulation of Cdk6 gene expression at 1 to 10 uM preincubated for 1 hr followed by MPP+ addition and measured after 24 hrs by RNA sequencing analysis relative to control; assay type: functional; conditions: dose 1-10 µM; time 25 hrs
PC-12 [18] = assay: Neuroprotective activity against MPP+-induced rat PC12 cell death assessed as downregulation of Sesn2 gene expression at 1 to 10 uM preincubated for 1 hr followed by MPP+ addition and measured after 24 hrs by RNA sequencing analysis relative to control; assay type: functional; conditions: dose 1-10 µM; time 25 hrs
PC-12 [19] = assay: Neuroprotective activity against MPP+-induced rat PC12 cell death assessed as downregulation of Cyp2b1 gene expression at 1 to 10 uM preincubated for 1 hr followed by MPP+ addition and measured after 24 hrs by RNA sequencing analysis relative to control; assay type: functional; conditions: dose 1-10 µM; time 25 hrs
PC-12 [20] = assay: Neuroprotective activity against MPP+-induced rat PC12 cell death assessed as downregulation of Cflar gene expression at 1 to 10 uM preincubated for 1 hr followed by MPP+ addition and measured after 24 hrs by RNA sequencing analysis relative to control; assay type: functional; conditions: dose 1-10 µM; time 25 hrs
PC-12 [21] = assay: Neuroprotective activity against MPP+-induced rat PC12 cell death assessed as downregulation of Dmpk gene expression at 1 to 10 uM preincubated for 1 hr followed by MPP+ addition and measured after 24 hrs by RNA sequencing analysis relative to control; assay type: functional; conditions: dose 1-10 µM; time 25 hrs
PC-12 [22] = assay: Neuroprotective activity against MPP+-induced rat PC12 cell death assessed as downregulation of Tnfrsf10b gene expression at 1 to 10 uM preincubated for 1 hr followed by MPP+ addition and measured after 24 hrs by RNA sequencing analysis relative to control; assay type: functional; conditions: dose 1-10 µM; time 25 hrs
PC-12 [23] = assay: Neuroprotective activity against MPP+-induced rat PC12 cell death assessed as downregulation of Cntf gene expression at 1 to 10 uM preincubated for 1 hr followed by MPP+ addition and measured after 24 hrs by RNA sequencing analysis relative to control; assay type: functional; conditions: dose 1-10 µM; time 25 hrs
PC-12 [24] = assay: Neuroprotective activity against MPP+-induced rat PC12 cell death assessed as downregulation of Bdnf gene expression at 1 to 10 uM preincubated for 1 hr followed by MPP+ addition and measured after 24 hrs by RNA sequencing analysis relative to control; assay type: functional; conditions: dose 1-10 µM; time 25 hrs
PC-12 [25] = assay: Neuroprotective activity against MPP+-induced rat PC12 cell death assessed as downregulation of Ikbkg gene expression at 1 to 10 uM preincubated for 1 hr followed by MPP+ addition and measured after 24 hrs by RNA sequencing analysis relative to control; assay type: functional; conditions: dose 1-10 µM; time 25 hrs
PC-12 [26] = assay: Neuroprotective activity against MPP+-induced rat PC12 cell death assessed as downregulation of Adora1 gene expression at 1 to 10 uM preincubated for 1 hr followed by MPP+ addition and measured after 24 hrs by RNA sequencing analysis relative to control; assay type: functional; conditions: dose 1-10 µM; time 25 hrs
PC-12 [27] = assay: Neuroprotective activity against MPP+-induced rat PC12 cell death assessed as downregulation of Prorp gene expression at 1 to 10 uM preincubated for 1 hr followed by MPP+ addition and measured after 24 hrs by RNA sequencing analysis relative to control; assay type: functional; conditions: dose 1-10 µM; time 25 hrs

SMILES: C=C1CC[C@H]2C(C)(C)[C@@H](O)C[C@@H](O)[C@]2(C)[C@H]1CO
- Activity (PC-12 [1]): Non-Toxic
- log2FC (PC-12 [2]): >0.4
- log2FC (PC-12 [3]): >0.4
- log2FC (PC-12 [4]): >0.4
- log2FC (PC-12 [5]): >0.4
- log2FC (PC-12 [6]): >0.4
- log2FC (PC-12 [7]): >0.4
- log2FC (PC-12 [8]): >0.4
- log2FC (PC-12 [9]): >0.4
- log2FC (PC-12 [10]): >0.4
- log2FC (PC-12 [11]): >0.4
- log2FC (PC-12 [12]): >0.4
- log2FC (PC-12 [13]): >0.4
- log2FC (PC-12 [14]): >0.4
- log2FC (PC-12 [15]): >0.4
- log2FC (PC-12 [16]): >0.4
- log2FC (PC-12 [17]): >0.4
- log2FC (PC-12 [18]): >0.4
- log2FC (PC-12 [19]): >0.4
- log2FC (PC-12 [20]): >0.4
- log2FC (PC-12 [21]): >0.4
- log2FC (PC-12 [22]): >0.4
- log2FC (PC-12 [23]): >0.4
- log2FC (PC-12 [24]): >0.4
- log2FC (PC-12 [25]): >0.4
- log2FC (PC-12 [26]): >0.4
- log2FC (PC-12 [27]): >0.4
